Assay results as given in patent US20060183786A1, “Injectable long-acting analgesic composition comprising an ester derivative of ketorolac” (CHI MEI FOUNDATION HOSPITAL, priority 2005, published 2006).
≈ marks a conversion by molar mass, not a printed value. Values belong to the molecule of their own block, whether it stands above or below them.

What was measured:
[1] = compared with commercially available ketorolac (trometamole salt); cited from earlier work
[2] = tested on: rats intraplantarly injected with carrageenin; experiment: Paw pressure test (pain threshold of paw), analgesic effect after intramuscular injection; type: in vivo, Sprague-Dawley rats
Description: Louis, Mo., USA) was injected subcutaneously into the plantar space of the right hind paw of all rats. Intraplantar injections were made with a Hamilton syringe and a 30-gauge hypodermic needle. The needle was inserted into the pad region of the glabrous skin and moved 6-8 mm proximal toward the tarsal region. • (5) Measurements of the pain threshold values of rat paw: Paw pressure test was conducted using the TSE Analgesia System (TSE Technical & Scientific Equipment GmbH; Bad Homburg, Germany). The TSE Analgesia System is designed to perform rapid and accurate screening of analgesic drug candidates on the normal and inflamed paw of small laboratory animals, according to the Randall-Selitto method. The data can be measured and recorded by a control unit and a computer system connected thereto. The animal's paw is placed on a plinth and is applied with an increasing pressure generated from the tip of a sensor. The applied pressure is measured. The sensor is made from smooth plastic to prevent the paw from being injured when the animal withdraws its paw suddenly. To start the test, a foot switch is pressed and the sensor is lowered rapidly until it contacts the rat's paw. Thereafter, the sensor is lowered in small steps until the pain threshold is reached, at which time the tested animal (rat) starts to move vigorously and tries to withdraw its paw. The foot switch is then released and the sensor is raised. The value of the applied pressure measured at the pain threshold is shown on the display and simultaneously delivered to the computer system, which is installed with a software system capable of transferring the measured data into Excel format, which can be used as a basis for further evaluation, e.g., statistics. The TSE Analgesia system is suitable for rats, mice and other small laboratory animals. […] To prevent tissue damage, a cutoff pressure of 350 gm was set. […] In order to keep a similar condition of carrageenin-induced paw edema and pain at each testing day, this 4-day study was accomplished by conducting four one-day studies consecutively (i.e. from day 1 to day 4). All rats received only one intramuscular injection of either ketorolac propyl ester ([…], […]) or the vehicle ([…]) at the start of study (day 1) and then (1 minute later) received intraplantar injection of carrageenin at either day 1, 2, 3, or day 4. Each rat received only one injection of carrageenin. […] A three-way analysis of variance with one-way repeated method was used to compare the differences between groups. The Bonferroni test was used as a post-hoc test to compare the differences between the medication groups and the vehicle group at each time point. […] (“*” means P<0.05 whereas “+” means P<0.01 when compared with the vehicle group). The three-way analysis of variance with one-way repeated method is a powerful statistical method which can be used to evaluate the differences among groups. […] A 4-day study was carried out. […] All rats received only one intramuscular injection of a tested analgesic drug (ketorolac or a ketorolac ester derivative, […]) or the vehicle ([…]) at the start of study (day 1) and then received intraplantar injection of carrageenin at either day 1, 2, 3, or day 4. Each rat received only one injection of carrageenin.

[3] = tested on: rats intraplantarly injected with carrageenin; experiment: Paw swelling (paw thickness), anti-inflammatory effect after intramuscular injection; type: in vivo, Sprague-Dawley rats
Description: Louis, Mo., USA) was injected subcutaneously into the plantar space of the right hind paw of all rats. Intraplantar injections were made with a Hamilton syringe and a 30-gauge hypodermic needle. The needle was inserted into the pad region of the glabrous skin and moved 6-8 mm proximal toward the tarsal region. • (5) Measurements of the pain threshold values of rat paw: Paw pressure test was conducted using the TSE Analgesia System (TSE Technical & Scientific Equipment GmbH; Bad Homburg, Germany). […] Paw thickness was measured immediately prior to and following carrageenin injection. […] A two-way analysis of variance with one-way repeated method was used to compare the differences between groups. The Bonferroni test was used as a post-hoc test to compare the differences between the medication groups and the vehicle group at each time point. […] (“*” means P<0.05 whereas “+” means P<0.01 when compared with the vehicle group). The two-way analysis of variance with one-way repeated method is a powerful statistical method which can be used to evaluate the differences among groups. […] In order to keep a similar condition of carrageenin-induced paw edema and pain at each testing day, this 4-day study was accomplished by conducting four one-day studies consecutively (i.e. from day 1 to day 4). All rats received only one intramuscular injection of either ketorolac propyl ester (80, 160, or 240 μmole/Kg, prepared in sesame oil) or the vehicle (sesame oil only) at the start of study (day 1) and then (1 minute later) received intraplantar injection of carrageenin at either day 1, 2, 3, or day 4. Each rat received only one injection of carrageenin. […] A three-way analysis of variance with one-way repeated method was used to compare the differences between groups. The Bonferroni test was used as a post-hoc test to compare the differences between the medication groups and the vehicle group at each time point. […] (“*” means P<0.05 whereas “+” means P<0.01 when compared with the vehicle group). The three-way analysis of variance with one-way repeated method is a powerful statistical method which can be used to evaluate the differences among groups. […] A 4-day study was carried out. […] All rats received only one intramuscular injection of a tested analgesic drug (ketorolac or a ketorolac ester derivative, prepared in sesame oil) or the vehicle (sesame oil only) at the start of study (day 1) and then received intraplantar injection of carrageenin at either day 1, 2, 3, or day 4. Each rat received only one injection of carrageenin. […] All rats received only one intramuscular injection of either a tested analgesic drug (ketorolac propyl ester prepared in four different oils) or the vehicle (4 different oils) at the start of study (day 1) and then received intraplantar injection of carrageenin at either day 1, 2, 3, or day 4. Each rat received only one injection of carrageenin.

Solubility in sesame oil = type: physicochemical
[4] = cited from earlier work
[5] = cited from earlier work; remark: listed apart in the source
[6] = parenteral, n>20,000; cited from earlier work
[7] = cited from earlier work; remark: listed apart in the source
[8] = tested on: rats intraplantarly injected with carrageenin; experiment: Paw swelling (paw thickness), anti-inflammatory effect after intramuscular injection; type: in vivo, Sprague-Dawley rats; settings: for Anti-inflammatory duration (h): in water
[9] = 30 mg (=80 μmole) given to an adult, clinical practice; cited from earlier work
[10] = human cadaver skin, compared with KEE; cited from earlier work
[11] = human serum, compared with KEE; cited from earlier work
[12] = 240 μmole/Kg intramuscular, in oil A (sesame oil)
[13] = 240 μmole/Kg intramuscular, oil suspension in sesame oil
[14] = 80 μmole/Kg intramuscular, in oil A (sesame oil)
[15] = 160 μmole/Kg intramuscular, in oil A (sesame oil)
[16] = 240 μmole/Kg intramuscular, in oil B (soybean oil)
[17] = 240 μmole/Kg intramuscular, in oil C (peanut oil)
[18] = 240 μmole/Kg intramuscular, in oil D (castor oil)
[19] = 240 μmole/Kg intramuscular, in oil E (cotton seed oil)
[20] = intramuscular injection of 24-240 μmole, in 0.9% saline

SMILES: O=C(O)C(=O)O.O=C(c1ccccc1)c1ccc2n1CCC2C(=O)OCCN1CCCC1 (centres unmarked) [oxalate salt of 2-(1-pyrrolidinyl)ethylester of ketorolac]
undesired side effects (gastrointestinal irritation and ulceration) [1]: less undesired side effects

SMILES: CCCCCCCOC(=O)C1CCn2c(C(=O)c3ccccc3)ccc21 (centres unmarked) [Ketorolac heptyl ester]
Analgesic duration [2, 12]: 74 h
Anti-inflammatory duration [3, 12]: 74 h

solubility in sesame oil (Solubility in sesame oil): 10.6 mM (≈ 2710 µg/mL)
solubility (Solubility in sesame oil; oil or lipid): 2700 µg/mL (≈ 10.6 mM)
SMILES: O=C(c1ccccc1)c1ccc2n1CCC2C(=O)O (racemic) [Ketorolac, (±)-5-benzoyl-2,3-dihydro-1H-pyrrolizine-1-carboxylic acid]
analgesic effect [2, 13]: failed to provide significant analgesic and antiinflamatory effects
anti-inflammatory effect [3, 13]: failed to provide significant analgesic and antiinflamatory effects
mean terminal elimination half-life (T1/2β) ([4]; healthy volunteers): about 5 hours
apparent volume of distribution (Vd) ([4]; in vivo): < 0.3 L/kg
bound to plasma proteins [5]: > 99%
odds ratio (OR), risk of gastrointestinal bleeding compared to opioids [6]: 1.30
odds ratio (OR), risk of operative site bleeding compared to opioids [6]: 1.02

SMILES: CCCOC(=O)C1CCn2c(C(=O)c3ccccc3)ccc21 (centres unmarked) [Ketorolac propyl ester]
Analgesic duration [2, 14]: 6 h
Analgesic duration [2, 15]: 28 h
Analgesic duration [2, 12]: 54 h
Analgesic duration (h) [2, 16]: 56, 56 h
Analgesic duration (h) [2, 17]: 56, 56 h
Analgesic duration [2, 18]: 56 h
Analgesic duration [2, 19]: 78 h
Anti-inflammatory duration [3, 14]: 6 h
Anti-inflammatory duration [3, 15]: 30 h
Anti-inflammatory duration [3, 12]: 54 h
Anti-inflammatory duration [3, 16]: 54 h
Anti-inflammatory duration [3, 17]: 56 h
Anti-inflammatory duration [3, 18]: 56 h
Anti-inflammatory duration [3, 19]: 78 h
permeation rate of ketorolac in rat skin (maximum) [7]: 46.61 nmole/cm^2/h

SMILES: NC(CO)(CO)CO.O=C(c1ccccc1)c1ccc2n1CCC2C(=O)O (centres unmarked) [Ketorolac tromethamine, ketorolac tromethamine, reference compound]
Analgesic duration ([2]; 24 μmole/Kg intramuscular, in water): 6 h
Analgesic duration ([2]; 80 μmole/Kg intramuscular, in water): 6 h
Analgesic duration ([2]; 240 μmole/Kg intramuscular, in water): 8 h
duration of action ([2]; intramuscular injection 30 mg/kg in rats): 6 to 8 h
duration of significant analgesic effects (pain threshold of paw) [2, 20]: 6 to 8 h
Anti-inflammatory duration (h) ([8]; 24 μmole/Kg intramuscular): 8, 8, 8 h
Anti-inflammatory duration (h) ([8]; 80 μmole/Kg intramuscular): 8, 8, 8 h
Anti-inflammatory duration (h) ([8]; 240 μmole/Kg intramuscular): 8, 8, 8 h
duration of significant anti-inflammatory effects (paw swelling) [8, 20]: 8 h
duration of action [9]: 6 to 8 h

SMILES: CC(C)(C)OC(=O)C1CCn2c(C(=O)c3ccccc3)ccc21 (centres unmarked) [Ketorolac tert-butyl ester]
Analgesic duration [2, 12]: 56 h
Anti-inflammatory duration [3, 12]: 56 h

SMILES: CCN(CC)CCOC(=O)C1CCn2c(C(=O)c3ccccc3)ccc21.O=C(O)/C=C\C(=O)O (centres unmarked) [maleate salt of 2-(diethylamino)ethyl ester of ketorolac]
undesired side effects (gastrointestinal irritation and ulceration) [1]: less undesired side effects

SMILES: O=C(c1ccccc1)c1ccc2n1CCC2C(=O)OCc1ccccc1 (centres unmarked) [Ketorolac benzyl ester]
Analgesic duration [2, 12]: 56 h
Anti-inflammatory duration [3, 12]: 56 h

SMILES: CCCCCCCCCCOC(=O)C1CCn2c(C(=O)c3ccccc3)ccc21 (centres unmarked) [Ketorolac decyl ester]
Analgesic duration [2, 12]: 76 h
Anti-inflammatory duration [3, 12]: 76 h

SMILES: CN(C)C(=O)COC(=O)C1CCn2c(C(=O)c3ccccc3)ccc21 (centres unmarked) [KDAE, ketorolac [(N,N-dimethylamino)carbonyl]methyl ester]
skin flux [10]: relatively higher skin flux
enzymatic hydrolysis to liberate the parent drug [11]: faster enzymatic hydrolysis

SMILES: CCCCCOC(=O)C1CCn2c(C(=O)c3ccccc3)ccc21 (centres unmarked) [Ketorolac pentyl ester]
Analgesic duration [2, 12]: 56 h
Anti-inflammatory duration [3, 12]: 56 h

SMILES: CCCCCCCCCCCCCCCCOC(=O)C1CCn2c(C(=O)c3ccccc3)ccc21 (centres unmarked) [Ketorolac cetyl ester]
Analgesic duration [2, 12]: 74 h
Anti-inflammatory duration [3, 12]: 78 h
